pIC50: −log10 of the molar value.
Experiments:
[1] = tested on: SH-SY5Y; experiment: Cytotoxicity against human SH-SY5Y cells after 24 hrs by MTT assay; assay type: functional, cell-based
[2] = tested on: BGC-823; experiment: Cytotoxicity against human BGC823 cells after 24 hrs by MTT assay; assay type: functional, cell-based; conditions: BGC-823, 24 h
[3] = Cytotoxicity against human HELF cells after 24 hrs by MTT assay; assay type: cell-based
[4] = tested on: HepG2; experiment: cells; conditions: Homo sapiens, HepG2, 24 h
Description: Cytotoxicity against human HepG2 cells after 24 hrs by MTT assay

[5] = tested on: HeLa; experiment: cells; conditions: Homo sapiens, 24 h
Description: Cytotoxicity against human HeLa cells after 24 hrs by MTT assay

[6] = tested on: H22; experiment: Antitumor activity against mouse H22 cells xenografted in kunming mouse assessed as inhibition of tumor growth at 150 mg/kg, ip for 7 days; assay type: functional; conditions: 168 h, route intraperitoneal
[7] = tested on: H22; experiment: animal or person; conditions: Mus musculus, H22, ip, 168 h, read-out: INH
Description: Antitumor activity against mouse H22 cells xenografted in kunming mouse assessed as inhibition of tumor growth at 15 mg/kg, ip for 7 days

SMILES | pIC50 [4] | pIC50 [5] | pIC50 [1] | pIC50 [2] | pIC50 [3] | inhibition in vivo at 150 mg/kg [6] [%] | inhibition in vivo at 15 mg/kg [7] [%]
CCCCOC(=O)[C@]12CC[C@@H](C)[C@H](C)[C@H]1C1=CC[C@@H]3[C@@]4(C)CC[C@H](OC(C)=O)C(C)(C)[C@@H]4CC[C@@]3(C)[C@]1(C)CC2 | < 4.00 | < 4.00 | < 4.00 | < 4.00 | < 4.00 | – | –
CC(=O)O[C@H]1CC[C@]2(C)[C@H]3CC=C4[C@@H]5[C@@H](C)[C@H](C)CC[C@]5(C(=O)NCCO)CC[C@@]4(C)[C@]3(C)CC[C@H]2C1(C)C | 4.33 | 4.79 | 4.31 | 4.31 | 4.56 | – | –
O=P1(N(CCCl)CCCl)NCCCO1 (configuration not stated) [CYCLOPHOSPHAMIDE ANHYDROUS] | – | – | – | – | – | – | 55
CC(=O)O[C@H]1CC[C@]2(C)[C@H]3CC=C4[C@@H]5[C@@H](C)[C@H](C)CC[C@]5(C(=O)N5CCC(CCO)CC5)CC[C@@]4(C)[C@]3(C)CC[C@H]2C1(C)C | 4.23 | 4.91 | 4.40 | 4.29 | 4.52 | – | –
COC(=O)C(Cc1ccc(O)cc1)NC(=O)[C@]12CC[C@@H](C)[C@H](C)[C@H]1C1=CC[C@@H]3[C@@]4(C)CC[C@H](OC(C)=O)C(C)(C)[C@@H]4CC[C@@]3(C)[C@]1(C)CC2 (some centres not stated) | < 4.00 | 4.17 | < 4.00 | 4.08 | 4.45 | – | –
CC(=O)O[C@H]1CC[C@]2(C)[C@H]3CC=C4[C@@H]5[C@@H](C)[C@H](C)CC[C@]5(C(=O)N5CCN(CCOCCO)CC5)CC[C@@]4(C)[C@]3(C)CC[C@H]2C1(C)C | 4.82 | 5.20 | 5.02 | 4.89 | 4.41 | – | –
CC(=O)O[C@H]1CC[C@]2(C)[C@H]3CC=C4[C@@H]5[C@@H](C)[C@H](C)CC[C@]5(C(=O)N5CCN(CCO)CC5)CC[C@@]4(C)[C@]3(C)CC[C@H]2C1(C)C | 4.69 | 5.14 | 4.93 | 4.86 | 4.51 | – | –
COC(=O)C(CO)NC(=O)[C@]12CC[C@@H](C)[C@H](C)[C@H]1C1=CC[C@@H]3[C@@]4(C)CC[C@H](OC(C)=O)C(C)(C)[C@@H]4CC[C@@]3(C)[C@]1(C)CC2 (some centres not stated) | 4.45 | 4.69 | 4.43 | 4.54 | 4.65 | – | –
C[C@H]1[C@H](C)CC[C@]2(C(=O)NC(Cc3ccc(O)cc3)C(=O)O)CC[C@]3(C)C(=CC[C@@H]4[C@@]5(C)CC[C@H](O)C(C)(C)[C@@H]5CC[C@]43C)[C@H]12 (some centres not stated) | < 4.00 | < 4.00 | < 4.00 | < 4.00 | < 4.00 | – | –
C[C@H]1[C@H](C)CC[C@]2(C(=O)N3CCN(CCOCCO)CC3)CC[C@]3(C)C(=CC[C@@H]4[C@@]5(C)CC[C@H](O)C(C)(C)[C@@H]5CC[C@]43C)[C@H]12 | 4.44 | 4.62 | 4.52 | 4.46 | 4.55 | – | –
CCOC(=O)[C@]12CC[C@@H](C)[C@H](C)[C@H]1C1=CC[C@@H]3[C@@]4(C)CC[C@H](OC(C)=O)C(C)(C)[C@@H]4CC[C@@]3(C)[C@]1(C)CC2 | < 4.00 | < 4.00 | < 4.00 | < 4.00 | < 4.00 | – | –
CC(=O)O[C@H]1C(=O)[C@@]2(C)[C@H]([C@H](OC(=O)c3ccccc3)[C@]3(O)C[C@H](OC(=O)[C@H](O)[C@@H](NC(=O)c4ccccc4)c4ccccc4)C(C)=C1C3(C)C)[C@]1(OC(C)=O)CO[C@@H]1C[C@@H]2O [PACLITAXEL] | 4.99 | 5.18 | 5.07 | 5.03 | 5.14 | – | –
CCCOC(=O)[C@]12CC[C@@H](C)[C@H](C)[C@H]1C1=CC[C@@H]3[C@@]4(C)CC[C@H](OC(C)=O)C(C)(C)[C@@H]4CC[C@@]3(C)[C@]1(C)CC2 | < 4.00 | < 4.00 | < 4.00 | < 4.00 | < 4.00 | – | –

Now from value to compound, other results behind:

pIC50 [4] | pIC50 [5] | SMILES | pIC50 [1] | pIC50 [2] | pIC50 [3] | inhibition in vivo at 150 mg/kg [6] [%] | inhibition in vivo at 15 mg/kg [7] [%]
4.05 | 4.32 | CCCOC(=O)[C@]12CC[C@@H](C)[C@H](C)[C@H]1C1=CC[C@@H]3[C@@]4(C)CC[C@H](O)C(C)(C)[C@@H]4CC[C@@]3(C)[C@]1(C)CC2 | 4.03 | 4.10 | < 4.00 | – | –
< 4.00 | 4.17 | C[C@H]1[C@H](C)CC[C@]2(C(=O)N3CCC(CCO)CC3)CC[C@]3(C)C(=CC[C@@H]4[C@@]5(C)CC[C@H](O)C(C)(C)[C@@H]5CC[C@]43C)[C@H]12 | < 4.00 | < 4.00 | < 4.00 | – | –
< 4.00 | 4.20 | CCCCOC(=O)[C@]12CC[C@@H](C)[C@H](C)[C@H]1C1=CC[C@@H]3[C@@]4(C)CC[C@H](O)C(C)(C)[C@@H]4CC[C@@]3(C)[C@]1(C)CC2 | < 4.00 | < 4.00 | < 4.00 | – | –
< 4.00 | < 4.00 | C[C@H]1[C@H](C)CC[C@]2(C(=O)OCCCCO[N+](=O)[O-])CC[C@]3(C)C(=CC[C@@H]4[C@@]5(C)CC[C@H](O)C(C)(C)[C@@H]5CC[C@]43C)[C@H]12 | < 4.00 | < 4.00 | < 4.00 | – | –
4.16 | 4.48 | C[C@H]1[C@H](C)CC[C@]2(C(=O)O)CC[C@]3(C)C(=CC[C@@H]4[C@@]5(C)CC[C@H](O)C(C)(C)[C@@H]5CC[C@]43C)[C@H]12 [URSOLIC ACID] | 4.26 | 4.18 | 4.67 | 36.2 | –
< 4.00 | 4.28 | C[C@H]1[C@H](C)CC[C@]2(C(=O)N3CCN(CCO)CC3)CC[C@]3(C)C(=CC[C@@H]4[C@@]5(C)CC[C@H](O)C(C)(C)[C@@H]5CC[C@]43C)[C@H]12 | < 4.00 | 4.01 | 4.48 | – | –
4.08 | 4.38 | C[C@H]1[C@H](C)CC[C@]2(C(=O)NC(CO)C(=O)O)CC[C@]3(C)C(=CC[C@@H]4[C@@]5(C)CC[C@H](O)C(C)(C)[C@@H]5CC[C@]43C)[C@H]12 (some centres not stated) | 4.14 | 4.10 | 4.22 | – | –
4.15 | 4.53 | CCOC(=O)[C@]12CC[C@@H](C)[C@H](C)[C@H]1C1=CC[C@@H]3[C@@]4(C)CC[C@H](O)C(C)(C)[C@@H]4CC[C@@]3(C)[C@]1(C)CC2 | 4.18 | 4.16 | 4.09 | – | –
4.08 | 4.49 | C[C@H]1[C@H](C)CC[C@]2(C(=O)NCCO)CC[C@]3(C)C(=CC[C@@H]4[C@@]5(C)CC[C@H](O)C(C)(C)[C@@H]5CC[C@]43C)[C@H]12 | 4.19 | 4.11 | 4.28 | – | –
4.06 | 4.16 | C[C@H]1[C@H](C)CC[C@]2(C(=O)OCCCO[N+](=O)[O-])CC[C@]3(C)C(=CC[C@@H]4[C@@]5(C)CC[C@H](O)C(C)(C)[C@@H]5CC[C@]43C)[C@H]12 | 4.05 | 4.01 | 4.08 | – | –
4.10 | 4.44 | C[C@H]1[C@H](C)CC[C@]2(C(=O)OCCO[N+](=O)[O-])CC[C@]3(C)C(=CC[C@@H]4[C@@]5(C)CC[C@H](O)C(C)(C)[C@@H]5CC[C@]43C)[C@H]12 | 4.15 | 4.07 | 4.17 | – | –
4.45 | 4.84 | C[C@H]1[C@H](C)CC[C@]2(C(=O)N(CCO)CCO)CC[C@]3(C)C(=CC[C@@H]4[C@@]5(C)CC[C@H](O)C(C)(C)[C@@H]5CC[C@]43C)[C@H]12 | 4.67 | 4.41 | 4.43 | – | –

Reference: ChEMBL document CHEMBL1795221, “In vitro and in vivo anticancer activity evaluation of ursolic acid derivatives” (Eur J Med Chem, 2011)
